The numbers were not newly measured in patent US20100003364A1, “REDUCED-HANGOVER ALCOHOLIC BEVERAGE COMPRISING TURMERIC” (priority 2006, published 2010), which cites them from elsewhere.

For the data set the following is noted: biological activities listed for compounds from Curcuma longa L.
As to `CC(C)=CC(=O)CC(C)c1ccc(C)cc1` (stereo not shown) [Ar-turmerone], the Activity entry was “snakebite”. For the molecule `O=C(C=Cc1ccc(O)cc1)CC(=O)C=Cc1ccc(O)cc1` [Bisdemethoxy curcumin], the Activity result is on record as “antioxidant”. For the molecule `COc1cc(/C=C/C(=O)CC(=O)/C=C/c2ccc([O-])c(OC)c2)ccc1[O-].[Na+].[Na+]` [Sodium curcuminate], the Activity entry is given as “anti-inflammatory”. Methylcurcumin: the Activity entry is given as “L. amazonensis”.
